Measured values published in PubChem BioAssay (NCI).
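Following 48 hours of exposure in 96-well plates, responses at five concentrations were used to interpolate endpoints linearly. TGI: concentration producing complete growth inhibition.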 Where a SMILES comes first, the peptide text is derived from it. [ ]: non-standard residue; d: D form. The star is where a group is joined. NMeF = CN[CH](Cc1ccccc1)C(=O)O; NMeV = CN[CH](C(=O)O)C(C)C; Boc = CC(C)(C)OC(=O)*

Assays:
Test in all cases: NCI tumour cell line growth inhibition, 48 h
HOP-62 NSCLC = tested on: HOP-62 NSCLC
HT29 colon = tested on: HT29 colon
SR leukemia = tested on: SR leukemia
HCC-2998 colon = tested on: HCC-2998 colon
NCI-H460 lung = tested on: NCI-H460 lung
SNB-75 CNS = tested on: SNB-75 CNS
HCT-15 colon = tested on: HCT-15 colon
MALME-3M melanoma = tested on: MALME-3M melanoma
NCI-H23 lung = tested on: NCI-H23 lung
DMS 114 small cell lung = tested on: DMS 114 small cell lung
SF-539 CNS = tested on: SF-539 CNS
OVCAR-3 ovarian = tested on: OVCAR-3 ovarian
SK-MEL-5 melanoma = tested on: SK-MEL-5 melanoma
NCI-H522 lung = tested on: NCI-H522 lung
SF-268 CNS = tested on: SF-268 CNS
DMS 273 small cell lung = tested on: DMS 273 small cell lung
OVCAR-8 ovarian = tested on: OVCAR-8 ovarian
OVCAR-5 ovarian = tested on: OVCAR-5 ovarian
SK-MEL-2 melanoma = tested on: SK-MEL-2 melanoma
CAKI-1 renal = tested on: CAKI-1 renal
UACC-257 melanoma = tested on: UACC-257 melanoma
MOLT-4 leukemia = tested on: MOLT-4 leukemia
RPMI-8226 leukemia = tested on: RPMI-8226 leukemia
DLD-1 colon = tested on: DLD-1 colon
UACC-62 melanoma = tested on: UACC-62 melanoma
U251 CNS = tested on: U251 CNS
COLO 205 colon = tested on: COLO 205 colon
LXFL 529 NSCLC = tested on: LXFL 529 NSCLC
SNB-19 CNS = tested on: SNB-19 CNS
IGROV1 ovarian = tested on: IGROV1 ovarian
XF 498 CNS = tested on: XF 498 CNS
HCT-116 colon = tested on: HCT-116 colon
M19-MEL melanoma = tested on: M19-MEL melanoma
KM20L2 colon = tested on: KM20L2 colon
UO-31 renal = tested on: UO-31 renal
HOP-92 NSCLC = tested on: HOP-92 NSCLC
HL-60(TB) leukemia = tested on: HL-60(TB) leukemia
EKVX NSCLC = tested on: EKVX NSCLC
RXF 393 renal = tested on: RXF 393 renal
SN12C renal = tested on: SN12C renal
A549 NSCLC = tested on: A549 NSCLC
TK-10 renal = tested on: TK-10 renal
KM12 colon = tested on: KM12 colon
ACHN renal = tested on: ACHN renal
SK-MEL-28 melanoma = tested on: SK-MEL-28 melanoma
M14 melanoma = tested on: M14 melanoma
NCI-H226 lung = tested on: NCI-H226 lung
K-562 leukemia = tested on: K-562 leukemia
LOX IMVI melanoma = tested on: LOX IMVI melanoma
786-0 renal = tested on: 786-0 renal
SW-620 colon = tested on: SW-620 colon
SK-OV-3 ovarian = tested on: SK-OV-3 ovarian
CCRF-CEM leukemia = tested on: CCRF-CEM leukemia
SF-295 CNS = tested on: SF-295 CNS

Measured: TGI

O=c1nc2n(c3nsnc13)CCO2
not listed: SF-295 CNS
> 100 µM: all other assays above

CC(C)C(NC(=O)OC(C)(C)C)C(=O)N(C)C(Cc1ccccc1)C(=O)N(C)C(C(=O)N(C)C(C(=O)O)C(C)C)C(C)C (stereo not given) (Boc-V[NMeF][NMeV][NMeV]-OH; configuration not given here)
not listed: SNB-75 CNS | OVCAR-5 ovarian | SK-MEL-2 melanoma | CAKI-1 renal | DLD-1 colon | HOP-92 NSCLC | SK-OV-3 ovarian
> 100 µM: all other assays above
